The target in this experiment is T1, human full-length recombinant PKC βII (Homo sapiens, UniProt P05771).
T1 construct: Active human full-length recombinant PKC βII; purchased Invitrogen GmbH, Darmstadt, Germany
The experiment can be described thus: Determination of PKC βII inhibition (Caliper mobility-shift kinase assay, Fluorescein-RFARKGSLRQKNV peptide substrate). The experiment is classed as biochemical. The note with it: example compounds at a final concentration of 1.14 μM (±0.15 μM). The method in brief:
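Compounds were tested at 1.14 μM final. Enzyme was activated by PS, DAG and CaCl2 in Hepes pH 7.4 with MgCl2, with substrate 3 μM and ATP 120 μM as pre-mix concentrations. After 60 min at 32 °C and an EDTA stop, Caliper separation gave fractional turnover, which was normalised to no-compound and no-enzyme controls.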

Consider 22 molecules from patent US8686150B2 (Sanofi, priority 2011, dated 2014).

SMILES strings stand for the structures.

T1 sequence (P05771 1-673 isoform P05771-2): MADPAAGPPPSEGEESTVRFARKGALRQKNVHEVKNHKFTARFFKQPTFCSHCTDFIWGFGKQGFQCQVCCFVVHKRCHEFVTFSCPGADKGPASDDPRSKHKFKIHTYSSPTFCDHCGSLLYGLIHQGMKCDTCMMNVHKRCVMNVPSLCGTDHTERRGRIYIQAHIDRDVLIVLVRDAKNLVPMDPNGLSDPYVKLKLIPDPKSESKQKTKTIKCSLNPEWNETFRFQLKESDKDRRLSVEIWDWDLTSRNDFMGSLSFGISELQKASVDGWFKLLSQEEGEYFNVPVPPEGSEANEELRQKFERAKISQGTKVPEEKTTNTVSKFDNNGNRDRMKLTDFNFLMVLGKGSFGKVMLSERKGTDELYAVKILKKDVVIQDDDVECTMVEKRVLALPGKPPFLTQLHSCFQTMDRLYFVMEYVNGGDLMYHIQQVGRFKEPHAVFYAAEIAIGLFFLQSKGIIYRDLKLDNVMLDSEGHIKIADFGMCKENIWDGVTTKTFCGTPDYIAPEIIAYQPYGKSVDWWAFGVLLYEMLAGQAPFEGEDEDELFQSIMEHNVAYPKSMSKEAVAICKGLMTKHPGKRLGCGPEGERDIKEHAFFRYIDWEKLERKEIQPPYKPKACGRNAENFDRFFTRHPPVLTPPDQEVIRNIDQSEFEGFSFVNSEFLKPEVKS

As a reminder, the inhibition is the change of the read-out against control, counted positive when it falls. In the case of `Cc1n[nH]c2nc(-c3ccc(O)cc3F)cc(C(=O)N3[C@@H]4CC[C@H]3CNC4)c12` [Example 417, 3,8-Diaza-bicyclo[3.2.1]oct-8-yl-[6-(2-fluoro-4-hydroxy-phenyl)-3-methyl-1H-pyrazolo[3,4-b]pyridin-4-yl]-methanone], the inhibition at 1.14 µM is 78%. The figure for `Cc1n[nH]c2nc(-c3ccc(O)cc3F)cc(C(=O)N3CCC(C)(N)CC3)c12` [Example 418, (4-Amino-4-methyl-piperidin-1-yl)-[6-(2-fluoro-4-hydroxy-phenyl)-3-methyl-1H-pyrazolo[3,4-b]pyridin-4-yl]-methanone] is 30%; for `Cc1n[nH]c2nc(-c3ccc(O)cc3F)cc(C(=O)N3C[C@H]4CNC[C@H]4C3)c12` [Example 419, [6-(2-Fluoro-4-hydroxy-phenyl)-3-methyl-1H-pyrazolo[3,4-b]pyridin-4-yl]-(3aR,6aS)-hexahydro-pyrrolo[3,4-c]pyrrol-2-yl-methanone] it is 79%; for `CCC[C@@H]1CN(C(=O)c2cc(-c3ccc(O)cc3F)nc3[nH]nc(C)c23)CCN1` [Example 420, [6-(2-Fluoro-4-hydroxy-phenyl)-3-methyl-1H-pyrazolo[3,4-b]pyridin-4-yl]-((R)-3-propyl-piperazin-1-yl)-methanone] it is 80%. As to `Cc1n[nH]c2nc(-c3ccc(O)cc3F)cc(C(=O)N3CCNC(c4ccccc4)C3)c12` (stereo not shown) [Example 421, [6-(2-Fluoro-4-hydroxy-phenyl)-3-methyl-1H-pyrazolo[3,4-b]pyridin-4-yl]-(3-phenyl-piperazin-1-yl)-methanone], the inhibition at 1.14 µM amounted to 51%.

For `CCC[C@H]1CN(C(=O)c2cc(-c3ccc(O)cc3F)nc3[nH]nc(C)c23)CCN1` [Example 422, [6-(2-Fluoro-4-hydroxy-phenyl)-3-methyl-1H-pyrazolo[3,4-b]pyridin-4-yl]-((S)-3-propyl-piperazin-1-yl)-methanone], the inhibition at 1.14 µM is 95%.

For the molecule `Cc1n[nH]c2nc(-c3ccc(O)cc3F)cc(C(=O)N3CCNC(C4CC4)C3)c12` (stereo not shown) [Example 423, (3-Cyclopropyl-piperazin-1-yl)-[6-(2-fluoro-4-hydroxy-phenyl)-3-methyl-1H-pyrazolo[3,4-b]pyridin-4-yl]-methanone], the inhibition at 1.14 µM turned out to be 84%. The figure for `Cc1n[nH]c2nc(-c3ccc(O)cc3F)cc(C(=O)N3CCN[C@@H](C)C3)c12` [Example 424, [6-(2-Fluoro-4-hydroxy-phenyl)-3-methyl-1H-pyrazolo[3,4-b]pyridin-4-yl]-((S)-3-methyl-piperazin-1-yl)-methanone] is 100%; for `Cc1n[nH]c2nc(-c3ccc(O)cc3F)cc(C(=O)N3CCNC(C)(C)C3)c12` [Example 425, (3,3-Dimethyl-piperazin-1-yl)-[6-(2-fluoro-4-hydroxy-phenyl)-3-methyl-1H-pyrazolo[3,4-b]pyridin-4-yl]-methanone] it is 88%. The figure for `Cc1n[nH]c2nc(-c3ccc(O)cc3F)cc(C(=O)N3CCN[C@H](C)C3)c12` [Example 426, [6-(2-Fluoro-4-hydroxy-phenyl)-3-methyl-1H-pyrazolo[3,4-b]pyridin-4-yl]-((R)-3-methyl-piperazin-1-yl)-methanone] is 87%; for `Cc1n[nH]c2nc(-c3ccc(O)cc3F)cc(C(=O)N3CC(C)(C)NCC3C)c12` (stereo not shown) [Example 427, [6-(2-Fluoro-4-hydroxy-phenyl)-3-methyl-1H-pyrazolo[3,4-b]pyridin-4-yl]-(2,5,5-trimethyl-piperazin-1-yl)-methanone] it is 99%; for `Cc1n[nH]c2nc(-c3ccc(O)cc3F)cc(C(=O)N3C[C@@H](C)NC[C@H]3C)c12` [Example 428, ((2R,5R)-2,5-Dimethyl-piperazin-1-yl)-[6-(2-fluoro-4-hydroxy-phenyl)-3-methyl-1H-pyrazolo[3,4-b]pyridin-4-yl]-methanone] it is 35%. The figure for `Cc1n[nH]c2nc(-c3ccc(O)cc3F)cc(C(=O)N3C[C@@H](C)NC[C@@H]3C)c12` [Example 429, ((2S,5R)-2,5-Dimethyl-piperazin-1-yl)-[6-(2-fluoro-4-hydroxy-phenyl)-3-methyl-1H-pyrazolo[3,4-b]pyridin-4-yl]-methanone] is 98%. In the case of `Cc1n[nH]c2nc(-c3ccc(O)cc3F)cc(C(=O)N3C[C@H](C)NC[C@@H]3C)c12` [Example 430, ((2S,5S)-2,5-Dimethyl-piperazin-1-yl)-[6-(2-fluoro-4-hydroxy-phenyl)-3-methyl-1H-pyrazolo[3,4-b]pyridin-4-yl]-methanone], the inhibition at 1.14 µM turned out to be 92%. Regarding `CC[C@H]1CNCCN1C(=O)c1cc(-c2ccc(O)cc2F)nc2[nH]nc(C)c12` [Example 431, ((S)-2-Ethyl-piperazin-1-yl)-[6-(2-fluoro-4-hydroxy-phenyl)-3-methyl-1H-pyrazolo[3,4-b]pyridin-4-yl]-methanone], the inhibition at 1.14 µM amounted to 97%. Consider `Cc1n[nH]c2nc(-c3ccc(O)cc3F)cc(C(=O)N3CCC(N)(C(F)(F)F)C3)c12` (stereo not shown) [Example 432, (3-Amino-3-trifluoromethyl-pyrrolidin-1-yl)-[6-(2-fluoro-4-hydroxy-phenyl)-3-methyl-1H-pyrazolo[3,4-b]pyridin-4-yl]-methanone], for which the inhibition at 1.14 µM amounted to 42%. The figure for `Cc1n[nH]c2nc(-c3ccc(O)cc3F)cc(C(=O)N3CCNCC34CCCC4)c12` [Example 433, (6,9-Diaza-spiro[4.5]dec-6-yl)-[6-(2-fluoro-4-hydroxy-phenyl)-3-methyl-1H-pyrazolo[3,4-b]pyridin-4-yl]-methanone] is 98%; for `Cc1n[nH]c2nc(-c3ccc(O)cc3F)cc(C(=O)N3CC(C)NCC3(C)C)c12` (stereo not shown) [Example 434, [6-(2-Fluoro-4-hydroxy-phenyl)-3-methyl-1H-pyrazolo[3,4-b]pyridin-4-yl]-(2,2,5-trimethyl-piperazin-1-yl)-methanone] it is 106%; for `Cc1n[nH]c2nc(-c3ccc(O)cc3F)cc(C(=O)N3CCNCC3(C)c3ccccc3)c12` (stereo not shown) [Example 435, [6-(2-Fluoro-4-hydroxy-phenyl)-3-methyl-1H-pyrazolo[3,4-b]pyridin-4-yl]-(2-methyl-2-phenyl-piperazin-1-yl)-methanone] it is 97%. The figure for `CCC1(CC)CNCCN1C(=O)c1cc(-c2ccc(O)cc2F)nc2[nH]nc(C)c12` [Example 436, (2,2-Diethyl-piperazin-1-yl)-[6-(2-fluoro-4-hydroxy-phenyl)-3-methyl-1H-pyrazolo[3,4-b]pyridin-4-yl]-methanone] is 100%; for `Cc1n[nH]c2nc(-c3ccc(O)cc3F)cc(C(=O)N3CC(C)(C)NCC34CCCC4)c12` [Example 437, (8,8-Dimethyl-6,9-diaza-spiro[4.5]dec-6-yl)-[6-(2-fluoro-4-hydroxy-phenyl)-3-methyl-1H-pyrazolo[3,4-b]pyridin-4-yl]-methanone] it is 99%; for `Cc1n[nH]c2nc(-c3ccc(O)cc3F)cc(C(=O)N3CC(C)NCC34CCCC4)c12` (stereo not shown) [Example 438, [6-(2-Fluoro-4-hydroxy-phenyl)-3-methyl-1H-pyrazolo[3,4-b]pyridin-4-yl]-(8-methyl-6,9-diaza-spiro[4.5]dec-6-yl)-methanone] it is 98%.
